Laboratory results as given in patent US20240317727A1 (Duke University, priority 2018, published 2024).

Key:
SW-620 = assay: NCI60 cell growth and viability: SW-620; assay type: cell-based; settings: SW-620, Colon Cancer, two days
[1] = test system: cancer cell lines in the NCI60 collection; assay: NCI60 collection, cell growth and viability (overall); assay type: cell-based; settings: incubated for two days, FIG. 8
Description: FIG. 8 is a graph showing the compounds of the disclosure suppress the growth of a broad range of cancer types. […] The cancer origins of the different cell lines are indicated with different colors.
HSF1 binding compounds were tested for its activity in suppressing the growth of a broad range of cancer types. For example, Compound 0017 was incubated for two days with a diverse series of cancer cell lines in the NCI60 collection and cell growth and viability were measured, and the results are shown in Table 4.

PC-3 = assay: NCI60 cell growth and viability: PC-3; assay type: cell-based; settings: PC-3, Prostate Cancer, two days
MOLT-4 = assay: NCI60 cell growth and viability: MOLT-4; assay type: cell-based; settings: MOLT-4, Leukemia, two days
HSF1 target gene, Hsp70 = assay: Hsp70 transcript in mouse liver and heart tissue, qRT-PCR; assay type: in vivo; settings: mice, 25 mpk three times per week i.p., vs vehicle, relative to GAPDH, FIG. 6B
Description: The cells were treated for 96 hours with the indicated concentrations of the compounds of the disclosure and cell viability was measured with the AlamarBlue assay. […]. […] After sacrificing the mice on the last day of the administration, mouse liver and heart tissue was isolated, messenger RNA extracted and the transcript abundance of the HSF1 target gene, Hsp70, was evaluated by qRT-PCR relative to the internal RNA control, GAPDH. The results of the vehicle-treated versus Compound 0017-treated experiments were compared. […]; **=P<0.01 in accordance with one embodiment of the present disclosure.

M14 = assay: NCI60 cell growth and viability: M14; assay type: cell-based; settings: M14, Melanoma, two days
UACC-257 = assay: NCI60 cell growth and viability: UACC-257; assay type: cell-based; settings: UACC-257, Melanoma, two days
TK-10 = assay: NCI60 cell growth and viability: TK-10; assay type: cell-based; settings: TK-10, Renal Cancer, two days
SF-539 = assay: NCI60 cell growth and viability: SF-539; assay type: cell-based; settings: SF-539, CNS Cancer, two days
CCRF-CEM = assay: NCI60 cell growth and viability: CCRF-CEM; assay type: cell-based; settings: Leukemia, two days
HL-60(TB) = assay: cells; assay type: cell-based; settings: Leukemia, two days
OVCAR-4 = assay: NCI60 cell growth and viability: OVCAR-4; assay type: cell-based; settings: OVCAR-4, Ovarian Cancer, two days
[2] = test system: heat shock induced chaperone (Hsp25 and Hsp70) expression; assay: Heat shock induced chaperone expression in MEFs, immunoblotting; assay type: cell-based, mouse; settings: heat shock 42° C. 30 mins, 6-hour recovery, FIG. 3
Description: The MEFs were then subjected to heat shock stress at 42° C. for 30 mins to activate HSF1. After heat shock, the MEFs were incubated at 37° C. for a 6-hour recovery. The whole cell lysates were collected at the end of the experiment, and proteins of interest, including Hsp25, Hsp70, HSF1 and GAPDH (as loading control) were assessed by immunoblotting with the corresponding antibody.

UO-31 = assay: NCI60 cell growth and viability: UO-31; assay type: cell-based; settings: UO-31, Renal Cancer, two days
MDA-MB-468 = assay: NCI60 cell growth and viability: MDA-MB-468
SF-268 = assay: NCI60 cell growth and viability: SF-268; assay type: cell-based; settings: SF-268, CNS Cancer, two days
SF-295 = assay: NCI60 cell growth and viability: SF-295; assay type: cell-based; settings: SF-295, CNS Cancer, two days
SR = assay: NCI60 cell growth and viability: SR; assay type: cell-based; settings: Leukemia, two days
A549/ATCC = assay: NCI60 cell growth and viability: A549/ATCC; assay type: cell-based; settings: Non-Small Cell Lung Cancer, two days
SN12C = assay: NCI60 cell growth and viability: SN12C; assay type: cell-based; settings: Renal Cancer, two days
[3] = Homo sapiens, 48 h, read-out: log10 [GI50 (M)] (converted)
[4] = Homo sapiens, 48 h, read-out: log10 [LC50 (M)] (converted)

O=C(Nc1ccc(F)cc1)Nc1ccc(Cl)c([N+](=O)[O-])c1 [Compound 0017, 1-(4-chloro-3-nitrophenyl)-3-(4-fluorophenyl)urea]
GI50 (SW-620; [3]): 3.47e-06 M
CC50 (SW-620; [4]): 4.79e-05 M
log10 [TGI (M)] (SW-620): −4.86 log10 M
growth of a broad range of cancer cells [1]: inhibited the growth of a broad range of cancer cells
GI50 (PC-3; [3]): 1.58e-06 M
CC50 (PC-3; [4]): 4.37e-05 M
log10 [TGI (M)] (PC-3): −4.95 log10 M
GI50 (MOLT-4; [3]): 3.16e-06 M
CC50 (MOLT-4; [4]): ≥ 0.0001 M
log10 [TGI (M)] (MOLT-4): −4.03 log10 M
Hsp70 transcript abundance in liver and heart tissue (HSF1 target gene, Hsp70): inhibits expression of the HSF1 target Hsp70
GI50 (M14; [3]): 3.16e-06 M
CC50 (M14; [4]): 3.8e-05 M
log10 [TGI (M)] (M14): −4.91 log10 M
GI50 (UACC-257; [3]): 2.75e-06 M
CC50 (UACC-257; [4]): 3.09e-05 M
log10 [TGI (M)] (UACC-257): −5.05 log10 M
GI50 (TK-10; [3]): 4.07e-06 M
CC50 (TK-10; [4]): 6.92e-05 M
log10 [TGI (M)] (TK-10): −4.70 log10 M
GI50 (SF-539; [3]): 3.89e-06 M
CC50 (SF-539; [4]): 4.07e-05 M
log10 [TGI (M)] (SF-539): −4.84 log10 M
GI50 (CCRF-CEM; [3]): 3.31e-06 M
CC50 (CCRF-CEM; [4]): ≥ 0.0001 M
log10 [TGI (M)] (CCRF-CEM): −4.00 log10 M
GI50 (HL-60(TB); [3]): 2.51e-06 M
CC50 (HL-60(TB); [4]): ≥ 0.0001 M
log10 [TGI (M)] (HL-60(TB)): −5.07 log10 M
GI50 (OVCAR-4; [3]): 2.75e-06 M
CC50 (OVCAR-4; [4]): 8.71e-05 M
log10 [TGI (M)] (OVCAR-4): −4.85 log10 M
heat shock induced chaperone (Hsp25 and Hsp70) expression [2]: dose-dependently inhibited
GI50 (UO-31; [3]): 2.69e-06 M
CC50 (UO-31; [4]): 3.47e-05 M
log10 [TGI (M)] (UO-31): −4.97 log10 M
GI50 (MDA-MB-468; Homo sapiens, MDA-MB-468, 48 h, read-out: log10 [GI50 (M)] (converted)): 2.14e-06 M
CC50 (MDA-MB-468; Homo sapiens, MDA-MB-468, 48 h, read-out: log10 [LC50 (M)] (converted)): 3.55e-05 M
log10 [TGI (M)] (MDA-MB-468; MDA-MB-468, Breast Cancer, two days): −5.12 log10 M
GI50 (SF-268; [3]): 4.47e-06 M
CC50 (SF-268; [4]): 5.75e-05 M
log10 [TGI (M)] (SF-268): −4.76 log10 M
GI50 (SF-295; [3]): 2.29e-06 M
CC50 (SF-295; [4]): 3.09e-05 M
log10 [TGI (M)] (SF-295): −5.10 log10 M
GI50 (SR; [3]): 3.39e-06 M
CC50 (SR; [4]): ≥ 0.0001 M
log10 [TGI (M)] (SR): −4.00 log10 M
GI50 (A549/ATCC; [3]): 3.09e-06 M
CC50 (A549/ATCC; [4]): ≥ 0.0001 M
log10 [TGI (M)] (A549/ATCC): −4.79 log10 M
GI50 (SN12C; [3]): 2.95e-06 M
CC50 (SN12C; [4]): 4.27e-05 M
log10 [TGI (M)] (SN12C): −4.93 log10 M
